Assay [1] has as its system cloned mammalian (mSlo or hSlo) BK channel expressed in Xenopus oocytes. The experiment in a line: Assay for BK channel openers: two-electrode voltage clamp, BK-mediated outward current in Xenopus oocytes. The class given is cell-based. Particulars: percent increase over BK current in controls, voltage step to +140 mV, IBTX-sensitive current. Here is the method: The ability of the compounds of the invention to open BK channels and increase whole-cell outward (K^+) BK-mediated currents was assessed under voltage-clamp conditions by determining their ability to increase cloned mammalian (mSlo or hSlo) BK-mediated outward current heterologously expressed in Xenopus oocytes [Butler, A., et al., Science 1993, 261, 221–224; Dworetzky, S. I., et al., Mol. Brain Res. 1994, 27, 189–193; Gribkoff, V. K., et al., Mol. Pharmacol. 1996, 50, 206–217]. The two BK constructs employed represent nearly structurally identical homologous proteins, and have proven to be pharmacologically indistinguishable in our tests. To isolate BK current from native (background, non-BK) current, the specific and potent BK channel-blocking toxin iberiotoxin (IBTX) [Galvez, A., et al., J. Biol. Chem. 1990, 265, 11083–11090] was employed at a supramaximal concentration, e.g., 50–100 nanomolar (“nM”). The relative contribution of BK channel-mediated current to total outward current was determined by subtraction of the current remaining in the presence of IBTX (non-BK current) from the current profiles obtained in all other experimental conditions (control, drug, and wash) [Gribkoff, V. K. et al., Mol. Pharmacol. 1996, 50, 206–217]. […] All compounds were tested in 5–10 oocytes and are reported at the indicated concentration of 20 micromolar (“μM”) (or as otherwise indicated); the effect of the selected compounds of the invention on BK current was expressed as the percent of control IBTX-sensitive current at a single transmembrane voltage (+140 mV) and is listed in Table 1. Recordings were accomplished using standard two-electrode voltage clamp techniques [Stuhmer, W., et al., Methods in Enzymology, 1992, 207, 319–339]; voltage-clamp protocols consisted of 500–750 milliseconds (“ms”) duration step depolarizations, from a holding potential of −60 mV, to a final voltage up to +140 mV in 20 mV steps. The experimental media (modified Barth's solution) consisted of millimolar (“mM”): NaCl (88), NaHCO3 (2.4), KCl (1.0), HEPES (10), MgSO4 (0.82), Ca(NO3)2 (0.33), CaCl2 (0.41); pH 7.5.
In general terms: Two-electrode voltage clamp is typically applied to oocytes expressing channels or transporters.

Assay [2] has as its system rat small intestine (ileum) segments. Put plainly: Rat small intestine (ileum) strip relaxation. Particulars: integral of nifedipine-sensitive force, pre- vs 30 min post-compound. The source says: The ability of the compounds of the invention to relax rat small intestine tissue as a model for the treatment of irritable bowel syndrome is described as follows. Male rats (Harlan, Sprague Dawley, 250–350 g) were sacrificed by decapitation. A portion of small intestine (ileum) was removed and the attached connective tissues and intestinal contents removed. The ileum was cut into segments of ≦1 cm in length. The segments were mounted longitudinally between fixed hooks in organ baths containing warm (37° C.) physiological salt solution (composition in mM: NaCl 118.4, KCl 4.7, KH2PO4 1.2, MgSO4 1.2, CaCl2 1.8, Glucose 10.1, NaHCO3 25; gassed with 95% O2/5% CO2, pH 7.4). A stable tension of ˜1.5 g was maintained in the tissue segments during the equilibration period of 45 minutes. Changes in muscle tension were measured with isometric force transducers (Grass, FT-03C) and recorded using AcqKnowledge data acquisition system (AcqKnowledge for MP100WS, Biopac Systems Inc., Goleta, Calif.). Compound or vehicle was added in the baths for 30 minutes. […] The effects of compounds or vehicle on force was determined by measuring the integral of nifedipine-sensitive force (including resting tone and spontaneous contractions) pre- and 30 min post-compound (or vehicle) addition. Results are expressed as the percentage inhibition of force. […]

On to `CN(C)S(=O)(=O)Nc1ccc(Sc2c(-c3cc(Cl)ccc3O)c3cc(C(F)(F)F)ccc3[nH]c2=O)cc1` [Example 6, N′-[4-[[4-(5-chloro-2-hydroxyphenyl)-1,2-dihydro-2-oxo-6-(trifluoromethyl)-3-quinolinyl]thio]phenyl]-N,N-dimethylsulfamide], for which the “% MaxiK opening” value in assay [1] (at 1 μM) is listed as 222^⋄ %.

Regarding `COc1ccc(Cl)cc1-c1c(Sc2ccc(NS(=O)(=O)C(F)(F)F)cc2)c(=O)[nH]c2ccc(C(F)(F)F)cc12` [Example 4, N-[4-[[4-(5-chloro-2-methoxyphenyl)-1,2-dihydro-2-oxo-6-(trifluoromethyl)-3-quinolinyl]thio]phenyl]-1,1,1-trifluoromethanesulfonamide], the “% MaxiK opening” value in assay [1] (at 20 μM) is 235%.

Turning to `O=c1[nH]c2ccc(C(F)(F)F)cc2c(-c2cc(Cl)ccc2O)c1Sc1ccc(NS(=O)(=O)CC(F)(F)F)cc1` [Example 8, N-[4-[[4-(5-chloro-2-hydroxyphenyl)-1,2-dihydro-2-oxo-6-(trifluoromethyl)-3-quinolinyl]thio]phenyl]-2,2,2-trifluoroethanesulfonamide], the “% MaxiK opening” value in assay [1] (at 20 μM) is given as 170%.

Turning to `CCCS(=O)(=O)Nc1ccc(Sc2c(-c3cc(Cl)ccc3O)c3cc(C(F)(F)F)ccc3[nH]c2=O)cc1` [Example 5, N-[4-[[4-(5-chloro-2-hydroxyphenyl)-1,2-dihydro-2-oxo-6-(trifluoromethyl)-3-quinolinyl]thio]phenyl]-1-propanesulfonamide], in assay [1] (at 20 μM), the “% MaxiK opening” value stood at 255%.

For the compound `O=c1[nH]c2ccc(C(F)(F)F)cc2c(-c2cc(Cl)ccc2O)c1Sc1ccc(NS(=O)(=O)C(F)(F)F)cc1` [Example 7, N-[4-[[4-(5-chloro-2-hydroxyphenyl)-1,2-dihydro-2-oxo-6-(trifluoromethyl)-3-quinolinyl]thio]phenyl]-1,1,1-trifluoromethanesulfonamide], the “% MaxiK opening” value in assay [1] (at 20 μM) is given as 277%. Further, in assay [2], the “% Inhibition of force (RSI strips)” value was determined as 51%.

For the compound `CN(C)S(=O)(=O)Nc1ccc(Sc2c(-c3cc(Cl)ccc3O)c3cc(C(F)(F)F)ccc3n(C)c2=O)cc1` [Example 9, N′-[4-[[4-(5-chloro-2-hydroxyphenyl)-1,2-dihydro-1-methyl-2-oxo-6-(trifluoromethyl)-3-quinolinyl]thio]phenyl]-N,N-dimethylsulfamide], the “% MaxiK opening” value in assay [1] (at 1 μM) is on record as 114^⋄ %.

As for `Nc1ccc(Sc2c(-c3cc(Cl)ccc3O)c3cc(C(F)(F)F)ccc3[nH]c2=O)cc1` [Example 1, 3-[(4-Aminophenyl)thio]-4-(5-chloro-2-hydroxyphenyl)-6-(trifluoromethyl)-2(1H)-quinolinone], the “% MaxiK opening” value in assay [1] (at 20 μM) is on record as 392%. In assay [2], the “% Inhibition of force (RSI strips)” value is given as 10%.

As for `CCS(=O)(=O)Nc1ccc(Sc2c(-c3cc(Cl)ccc3O)c3cc(C(F)(F)F)ccc3[nH]c2=O)cc1` [Example 3, N-[4-[[4-(5-Chloro-2-hydroxyphenyl)-1,2-dihydro-2-oxo-6-(trifluoromethyl)-3-quinolinyl]thio]phenyl]ethanesulfonamide], the “% MaxiK opening” value in assay [1] (at 20 μM) is on record as 296%.

As to `Cn1c(=O)c(Sc2ccc(N)cc2)c(-c2cc(Cl)ccc2O)c2cc(C(F)(F)F)ccc21` [Example 2, 3-[(4-Aminophenyl)thio]-4-(5-chloro-2-hydroxyphenyl)-1-methyl-6-(trifluoromethyl)-2(1H)-quinolinone], in assay [1] (at 20 μM), the “% MaxiK opening” value is given as 144%.

These data come from patent US7145013B2, “3-thia-4-arylquinolin-2-one derivatives” (Bristol-Myers Squibb Company, priority 2003, dated 2006).
